# Results reported in paper PMC12668314, “Identification of a Proteolysis‐Targeting‐Chimera that Addresses Activated Checkpoint Kinase‐1 Reveals its Non‐Catalytic Functions in Tumor Cells” (Angewandte Chemie (International Ed. in English), 2025).
# Molecular target: T1, CHK1 (checkpoint kinase-1) (Homo sapiens, UniProt O14757)
# T1 construct: gene CHEK1
# T1 sequence (O14757 1-476): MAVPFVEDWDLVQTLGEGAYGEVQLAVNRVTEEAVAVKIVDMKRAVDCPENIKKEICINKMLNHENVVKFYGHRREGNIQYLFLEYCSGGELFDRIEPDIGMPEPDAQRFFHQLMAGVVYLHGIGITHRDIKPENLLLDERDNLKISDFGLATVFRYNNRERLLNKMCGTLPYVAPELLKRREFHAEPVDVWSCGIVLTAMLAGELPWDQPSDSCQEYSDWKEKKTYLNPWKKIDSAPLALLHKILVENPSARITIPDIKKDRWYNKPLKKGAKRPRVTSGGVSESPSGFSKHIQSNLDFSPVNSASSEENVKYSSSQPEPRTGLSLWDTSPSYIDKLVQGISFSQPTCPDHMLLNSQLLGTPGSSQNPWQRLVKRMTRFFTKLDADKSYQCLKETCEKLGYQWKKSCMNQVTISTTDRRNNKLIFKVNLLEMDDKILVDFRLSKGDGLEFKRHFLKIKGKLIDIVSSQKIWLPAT
# Assay: in vitro binding test against human CHK1 (Eurofins Discovery), at […]
row,inhibition at 1 µM [%],Compound
1,98,Cc1cnc(NC(=O)Nc2cc(Br)c(C)cc2OC[C@@H]2CNCCO2)cn1 [rabusertib]
2,90,CNC(=O)c1ccc(OC[C@@H]2CNCCO2)c(NC(=O)Nc2cnc(C)cn2)c1 [9b]
3,95,CNC(=O)c1ccc(NC(=O)Nc2cnc(C)cn2)c(OC[C@@H]2CNCCO2)c1 [9a]
